Key:
[1] = tested on: human umbilical vein endothelial cells (HUVECs); test: Angiogenesis analysis (tube segments on Matrigel) in HUVECs; assay type: cell-based; settings: compared to siCTL control
Procedure: At the same time, an angiogenesis analysis was also performed. Cells were allowed to adhere to the well surface and cultured by inoculating HUVEC cells into Matrigel-coated wells. Cells were further cultured by adding VEGF and each siRNA to the medium, and then tube segments formed were counted using an angiogenesis assay kit.

[2] = tested on: human umbilical vein endothelial cells (HUVECs); test: BrdUrd labeling assay (proliferation) in HUVECs; assay type: cell-based; settings: compared to siCTL control
Procedure: Specifically, human umbilical vein endothelial cells (HUVECs) were inoculated into a medium and cultured, and then further cultured after the medium was treated with siRNA of siCTL or siTGase2 (siTG2) and VEGF as a vascular growth promoting factor. After cells treated with the siRNA and VEGF were cultured, the medium was again treated with bromodeoxyuridine (BudUrd), a BrdUrd labeling assay was performed. For quantification, BrdUrd-positive cells were counted among the cells grown on the medium. For the counted cells, the number of BrdUrd-positive cells in the siCTL-treated and VEGF-untreated groups was used as a reference, and the number of BrdUrd cells in each experimental group was obtained as a relative percentage.

[3] = tested on: human umbilical vein endothelial cells (HUVECs); test: Migration of HUVECs; assay type: cell-based; settings: compared to siCTL control
[4] = tested on: renal cancer cell line (ACHN cells and CAKI-1 cells); test: Trypan blue live cell count, renal cancer cell line (cell line not distinguished); assay type: cell-based; settings: 48 h, read-out: cell viability relative to untreated control
Procedure: Specifically, after ACHN cells which are a renal cancer cell (RCC) line and CAKI-1 cells (provided by the National Cancer Center, Korea) were each inoculated into an RPM1640 medium containing 10% FBS and cultured, and then further cultured for 48 hours after being treated with 10 nM rapamycin and/or 10 nM streptonigrin in combination or alone. After the culture, cells were stained by treating respective cells with 0.4% trypan blue, and live and dead cells were sorted and counted. For the number of counted cells, the ratio of the number of relative live cells was calculated based on the number of live cells of an untreated control which had not been treated with rapamycin and streptonigrin.
Specifically, the relative ratio of the number of live cells was calculated in the same manner as in Example <2-1>, using 5 μM of pazopanib and 2 nM of streptonigrin.

[5] = tested on: CAKI-1 renal cancer cell line xenograft; test: CD31 immunohistochemistry of tumors in CAKI-1 xenograft mouse model; assay type: in vivo, mice
Procedure: Specifically, a mouse model was prepared by xenografting mice with a CAKI-1 cell line which is a renal cancer cell line. And then, the formation of a tumor was observed after administering streptonigrin to the mouse model at a dose of 0.1 mg/kg or 0.2 mg/kg, and breeding the mice. After the xenografting, a biopsy tissue sample was obtained by excising tumor sites, and the level of expression of CD31-positive cells, which are a blood vessel specific marker, was confirmed by immunohistochemically staining the sample.

| Molecule | angiogenesis degree (tube formation) [1] | proliferation of cells (BrdUrd-positive cells) [2] | migration of cells [3] | viability at 0.01 µM [4] [%] | number of CD31-positive cells with increasing dose ([5]; streptonigrin 0.1 mg/kg or 0.2 mg/kg) | level of CD31-positive cells relative to control ([5]; streptonigrin 0.2 mg/kg, tumor biopsy) |
| --- | --- | --- | --- | --- | --- | --- |
| VEGF | sharply increased | sharply increased | sharply increased | – | – | – |
| CO[C@H]1C[C@@H]2CC[C@@H](C)[C@@](O)(O2)C(=O)C(=O)N2CCCC[C@H]2C(=O)O[C@H]([C@H](C)C[C@@H]2CC[C@@H](O)[C@H](OC)C2)CC(=O)[C@H](C)/C=C(\C)[C@@H](O)[C@@H](OC)C(=O)[C@H](C)C[C@H](C)/C=C/C=C/C=C/1C [rapamycin] | – | – | – | ≥ 90 | – | – |
| COC1=C(N)C(=O)c2nc(-c3nc(C(=O)O)c(C)c(-c4ccc(OC)c(OC)c4O)c3N)ccc2C1=O [streptonigrin] | – | – | – | ≥ 65 | decreased | about 20% |

Source: patent publication US20200237738A1, “PHARMACEUTCAL COMPOSITION FOR PREVENTING OR TREATING CANCER, CONTAINING STREPTONIGRIN AND RAPAMYCIN AS ACTIVE INGREDIENTS” (MD BIOLAB CO., LTD., priority 2017, published 2020)
